Assay type in all cases: in vivo, human
Test [1] has as its system open soars on their feet. The experiment in a line: topical treatment of open sores on the feet. As to conditions: person, composition applied to the wound twice a day for 10 days. From the text:
A person is suffering from open soars on their feet. A composition containing copper-zinc malonate is applied to the wound twice a day for 10 days. Healing time is reduced.

The test system of test [2] is 6 inch laceration to their right forearm. Nature of the test: topical treatment of a forearm laceration. As to conditions: person; emulsion composition applied three times a day for 1 week. From the text: A person is suffering from 6 inch laceration to their right forearm. An emulsion composition suitable for treatment of skin containing an effective amount of copper-zinc malonate active ingredient is applied to their laceration three times a day for 1 week.

Test [3] concerns pressure ulcer. Nature of the test: topical treatment of pressure ulcers in a diabetic patient. From the text:
A diabetic is suffering from a stage I pressure ulcer characterized by non-blanchable erythema on intact skin. A gel composition suitable for treatment of skin containing an effective amount of copper-zinc malonate active ingredient is routinely applied to the stage I pressure ulcer twice daily.
A diabetic is suffering from a stage II pressure ulcer characterized by partial skin loss involving the epidermis, dermis, or both. The lesion is superficial and presents clinically as a shallow center. A liquid composition suitable for treatment of skin containing an effective amount of copper-zinc malonate active ingredient is applied to the shallow center four times a day for 2 months.
A diabetic is suffering from a stage III pressure ulcer characterized by full thickness skin loss involving damage or necrosis of subcutaneous tissue that extends down to, but not through, underlying fascia. The sore presents clinically as a deep crater. A liquid composition suitable for treatment of skin containing an effective amount of one or more copper-zinc malonate active ingredients is applied to the crater four times a day for 1 month.
A diabetic is suffering from a stage IV pressure ulcer characterized by full thickness skin loss with extensive destruction, and tissue necrosis. A liquid composition suitable for treatment of skin containing an effective amount of copper-zinc malonate active ingredient is applied to the dying tissue four times a day for 1 month.

The test system of test [4] is bee sting characterized by pain and swelling. Nature of the test: topical treatment of a bee sting. The note with it: child; liquid composition containing 0.05% active ingredient, four times a day for 2 days. From the text: A child is suffering from a bee sting characterized by pain and swelling. A liquid composition suitable for treatment of skin containing 0.05% copper-zinc malonate active ingredient is applied to the sting four times a day for 2 days.

Test [5] concerns third degree burns on their left wrist and stomach. The experiment in a line: topical treatment of third degree burns. The note with it: person; liquid composition applied four times a day for 1 month. The source says:
A person truck accident victim is suffering from third degree burns on their left wrist and stomach. A liquid composition suitable for treatment of skin containing an effective amount of copper-zinc malonate active ingredient is applied to the third degree burn four times a day for 1 month.

Where [6] appears, read: liquid composition applied four times a day for 1 month.

The text below walks through data of US7867522B2, “Method of wound/burn healing using copper-zinc compositions” (JR Chem, LLC, priority 2006, dated 2011).

Take copper-zinc malonate: the healing time result in test [1] is given as “reduced”. Besides, in test [2], the “healing and time necessary for the wound to close” value is “promotes healing and decreases the time necessary for the wound to close”. Moreover, the “stage I pressure ulcer” value in test [3] (gel composition applied twice daily) is “reduced or eliminated”. Further, in test [3] (setting [6]), the “stage III pressure ulcer” value is recorded as “reduced or eliminated” and the “stage IV pressure ulcer” value is on record as “reduced or eliminated”. The “stage II pressure ulcer” value in test [3] (liquid composition applied four times a day for 2 months) was “reduced or eliminated”. In addition, the bee sting entry in test [4] is “reduced or eliminated”. For the same substance, the “burnt wrist and stomach, healing time” value in test [5] was “improve, and healing time is reduced”.
